Results: ChEMBL document CHEMBL1201862, “PubChem BioAssay data set” (2004)
Each block holds one molecule with its values, some of them ahead of it. The source made the active and inactive calls.

Tests used:
Troponin, cardiac muscle = Troponin, cardiac muscle (Homo sapiens, UniProt P19429+P45379+P63316); test: Fluorescence-based biochemical high throughput dose response assay for activators of the calcium sensitivity of cardiac Regulated Thin Filaments (RTF). [Related pubchem assays (depositor defined):AID493008, AID493018, AID504382, AID504383]; format: protein-complex assay
[1] = molecular target: T1, Corticotropin-releasing factor receptor 2/Corticotropin-releasing factor-binding protein (Homo sapiens, UniProt P24387+Q13324); test: activators of CRF receptor 2 with binding protein – uHTS hits, confirmation (AID 602473); format: functional; conditions: read-out: EC50_Mean
T1 sequence (Q13324 whole entry): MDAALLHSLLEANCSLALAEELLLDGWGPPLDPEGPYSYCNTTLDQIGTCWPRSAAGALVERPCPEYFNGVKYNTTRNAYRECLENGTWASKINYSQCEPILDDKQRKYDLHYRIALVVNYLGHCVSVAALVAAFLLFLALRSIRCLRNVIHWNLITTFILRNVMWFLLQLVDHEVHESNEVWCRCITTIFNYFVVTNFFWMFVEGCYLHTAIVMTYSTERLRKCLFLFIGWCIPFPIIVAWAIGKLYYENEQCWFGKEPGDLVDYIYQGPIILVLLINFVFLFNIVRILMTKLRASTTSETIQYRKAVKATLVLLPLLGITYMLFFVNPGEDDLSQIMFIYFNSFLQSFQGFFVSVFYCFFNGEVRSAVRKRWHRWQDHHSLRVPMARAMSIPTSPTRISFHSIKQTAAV
T1 sequence (P24387 whole entry): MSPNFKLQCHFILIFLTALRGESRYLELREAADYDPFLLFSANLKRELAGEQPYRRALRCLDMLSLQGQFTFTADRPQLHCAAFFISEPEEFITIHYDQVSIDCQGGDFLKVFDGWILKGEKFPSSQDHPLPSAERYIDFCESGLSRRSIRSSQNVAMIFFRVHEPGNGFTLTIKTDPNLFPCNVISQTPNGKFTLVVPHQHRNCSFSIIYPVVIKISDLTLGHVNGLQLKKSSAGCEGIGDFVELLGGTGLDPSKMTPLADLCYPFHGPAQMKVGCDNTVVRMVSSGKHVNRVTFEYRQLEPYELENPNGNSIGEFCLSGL

Coagulation factor XII = molecular target: T2, Coagulation factor XII (Homo sapiens, UniProt P00748); test: Factor XIIa Dose Response Confirmation from Single Well HTS. [Related pubchem assays (depositor defined):AID701]; format: functional
T2 sequence (P00748 whole entry): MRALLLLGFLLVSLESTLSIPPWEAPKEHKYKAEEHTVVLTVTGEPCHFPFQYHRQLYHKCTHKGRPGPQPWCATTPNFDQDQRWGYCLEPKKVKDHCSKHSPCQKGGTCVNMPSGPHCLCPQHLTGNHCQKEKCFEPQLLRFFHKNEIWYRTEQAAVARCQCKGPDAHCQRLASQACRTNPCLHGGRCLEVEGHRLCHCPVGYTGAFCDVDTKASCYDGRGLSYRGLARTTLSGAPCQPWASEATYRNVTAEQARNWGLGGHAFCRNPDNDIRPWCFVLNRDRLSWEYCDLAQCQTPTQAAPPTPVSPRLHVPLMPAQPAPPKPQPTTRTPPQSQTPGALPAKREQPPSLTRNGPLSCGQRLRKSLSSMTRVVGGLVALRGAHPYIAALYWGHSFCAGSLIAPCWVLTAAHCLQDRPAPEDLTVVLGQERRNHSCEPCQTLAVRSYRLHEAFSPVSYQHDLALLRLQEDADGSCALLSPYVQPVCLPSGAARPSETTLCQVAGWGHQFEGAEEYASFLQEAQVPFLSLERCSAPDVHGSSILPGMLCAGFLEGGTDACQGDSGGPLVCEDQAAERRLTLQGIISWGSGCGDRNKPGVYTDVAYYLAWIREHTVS

[2] = molecular target: Voltage-dependent T-type calcium channel subunit alpha-1H (Homo sapiens, UniProt O95180); test: Cav3.2 T-type channel inhibitors, synthesized analogs, SAR follow-up, cell-based, synthetic library set 2, HEK293 HH8, Fluo-4 (AID 493023); format: functional
[3] = THP-1 cell cytotoxicity, dose response, cytotoxicity control for Vif-APOBEC3G degradation inhibitor project, THP-1 cells (AID 1117359); format: functional; conditions: Human immunodeficiency virus 1, THP-1
[4] = molecular target: Eukaryotic translation initiation factor 4E (Mus musculus, UniProt P63073); test: eIF4E–eIF4G protein interaction inhibitors, dose response, biochemical, TR-FRET (AID 855); format: functional;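 also: potency for disrupting eIF4E binding to eIF4GI seen as loss of FRET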
Procathepsin L = Procathepsin L (Homo sapiens, UniProt P07711)
[5] = molecular target: T3, Mannose-6-phosphate isomerase (Homo sapiens, UniProt P34949); test: human PMI inhibitors, high substrate, primary screen, biochemical, fluorescence intensity, high mannose 6-phosphate (AID 1220)
T3 sequence (P34949 whole entry): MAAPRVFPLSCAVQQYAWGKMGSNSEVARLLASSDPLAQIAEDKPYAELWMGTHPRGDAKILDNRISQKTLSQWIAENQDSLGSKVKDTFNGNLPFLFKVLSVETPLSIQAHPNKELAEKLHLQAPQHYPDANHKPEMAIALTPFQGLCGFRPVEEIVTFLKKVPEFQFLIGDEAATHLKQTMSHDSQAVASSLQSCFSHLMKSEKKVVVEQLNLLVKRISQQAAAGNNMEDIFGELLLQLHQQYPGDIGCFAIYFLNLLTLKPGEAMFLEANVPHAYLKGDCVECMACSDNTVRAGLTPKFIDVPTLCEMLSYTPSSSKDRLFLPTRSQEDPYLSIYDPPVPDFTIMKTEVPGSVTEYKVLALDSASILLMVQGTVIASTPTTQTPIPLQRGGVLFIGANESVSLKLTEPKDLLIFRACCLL

[6] = molecular target: T4, Runt-related transcription factor 1/Core-binding factor subunit beta (Homo sapiens, UniProt Q01196+Q13951); test: Confirmation of compounds inhibiting the binding between the RUNX1 Runt domain and CBFb-SMMHC via a fluorescence resonance energy transfer (FRET) assay. [Related pubchem assays (depositor defined):AID1434, AID1438, AID1496, AID1550, AID1645]; format: protein assay
Aspartyl aminopeptidase = Aspartyl aminopeptidase (Plasmodium falciparum 3D7, UniProt Q8I2J3)
[7] = molecular target: T5, Polyadenylate-binding protein 1 (Homo sapiens, UniProt P11940); test: PABP1 MLLE–PAM2 binding inhibitor potency, dose response, biochemical, fluorescence polarization, FITC-PAM2 peptide (AID 602259); format: functional; conditions: read-out: IC50_Mean
[8] = molecular target: Glucose-6-phosphate 1-dehydrogenase (Homo sapiens, UniProt P11413); test: human G6PD enzyme inhibitors, dose response, selectivity assay for P. falciparum G6PD inhibitor project, biochemical, fluorescence (AID 504792); format: functional
[9] = molecular target: T4, Runt-related transcription factor 1/Core-binding factor subunit beta; test: inhibitors of RUNX1 Runt–CBFb-SMMHC binding, primary screen, biochemical, FRET, Cerulean-Runt, Venus-CBFb-SMMHC, uHTS (AID 1434); format: protein assay;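 also: partner is the CBFb-SMMHC leukemia fusion protein rather than wild-type CBFb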
[10] = molecular target: Induced myeloid leukemia cell differentiation protein Mcl-1 (Homo sapiens, UniProt Q07820); format: functional
[11] = molecular target: T4, Runt-related transcription factor 1/Core-binding factor subunit beta; test: Confirmation of compounds inhibiting the binding between the RUNX1 Runt domain and CBFb-SMMHC via a time resolved fluorescence resonance energy transfer (TR-FRET) assay. [Related pubchem assays (depositor defined):AID1434, AID1438, AID1496, AID1560, AID1645]; format: protein assay
[12] = molecular target: T5, Polyadenylate-binding protein 1; test: PABP1 MLLE–PAM2 interaction inhibitors, dose response, miRNA deadenylation inhibitor project, biochemical, fluorescence polarization, Cy5-PAM2 peptide, secondary (AID 602260); format: functional; conditions: read-out: IC50_Mean

EC50 (Troponin, cardiac muscle): > 71.5 µM (inactive)
Compound: O=C(COc1ccccc1F)NC1CC1

EC50 [1]: > 53 µM (inactive)
IC50 (Coagulation factor XII): > 50 µM (inactive)
Compound: CCn1c(C)c(C(C)=O)c(N2CCN(c3ccccc3)CC2)nc1=S

EC50 [2]: 1.5 µM (active)
Compound: O=C(NC[C@@H]1[C@H]2CN(Cc3ccccc3)C[C@@H]12)c1cc(Cl)cc(Cl)c1

Compound: CN1CCc2cccc3c2[C@@H]1Cc1ccc(O)c(O)c1-3
CC50 [3]: 15 µM (active)
IC50 [4]: > 64 µM (inactive)
IC50 (Procathepsin L): > 59.6 µM (not active)
IC50 [5]: 24.9 µM (active)
IC50 [6]: 8.48 µM (active)
IC50 (Aspartyl aminopeptidase): 3.1 µM (active)
IC50 [7]: > 66 µM (inactive)
IC50 [8]: 38.4 µM (inactive)
IC50 [9]: 7.12 µM (active)
IC50 [10]: < 0.4 µM (active)
IC50 [11]: 17.8 µM (active)
IC50 [12]: > 66 µM (inactive)
